Measurements as given in ChEMBL document CHEMBL1909046, “DrugMatrix in vitro pharmacology data”.

Tests used:
[1] = target: 5-hydroxytryptamine receptor 4 (Cavia porcellus, UniProt O70528); assay type: cell membranes, Dunkin-Hartley, Striatum, Membrane; note: in other assays of this panel Not Active means under 50% inhibition at 10 µM
[2] = DRUGMATRIX: Sigma2 radioligand binding (ligand: [3H] Ifenprodil); assay type: cell membranes, Rattus norvegicus, Wistar, Brain, Membrane; conditions: Not Active = under 50% inhibition at 10 µM
[3] = target: Vascular endothelial growth factor receptor 1 (Homo sapiens, UniProt P17948); assay: biochemical; assay type: cell-based, HUVEC; conditions: huvec; note: in other assays of this panel Not Active means under 50% inhibition at 10 µM
Vascular endothelial growth factor receptor 1, sequence (P17948 whole entry): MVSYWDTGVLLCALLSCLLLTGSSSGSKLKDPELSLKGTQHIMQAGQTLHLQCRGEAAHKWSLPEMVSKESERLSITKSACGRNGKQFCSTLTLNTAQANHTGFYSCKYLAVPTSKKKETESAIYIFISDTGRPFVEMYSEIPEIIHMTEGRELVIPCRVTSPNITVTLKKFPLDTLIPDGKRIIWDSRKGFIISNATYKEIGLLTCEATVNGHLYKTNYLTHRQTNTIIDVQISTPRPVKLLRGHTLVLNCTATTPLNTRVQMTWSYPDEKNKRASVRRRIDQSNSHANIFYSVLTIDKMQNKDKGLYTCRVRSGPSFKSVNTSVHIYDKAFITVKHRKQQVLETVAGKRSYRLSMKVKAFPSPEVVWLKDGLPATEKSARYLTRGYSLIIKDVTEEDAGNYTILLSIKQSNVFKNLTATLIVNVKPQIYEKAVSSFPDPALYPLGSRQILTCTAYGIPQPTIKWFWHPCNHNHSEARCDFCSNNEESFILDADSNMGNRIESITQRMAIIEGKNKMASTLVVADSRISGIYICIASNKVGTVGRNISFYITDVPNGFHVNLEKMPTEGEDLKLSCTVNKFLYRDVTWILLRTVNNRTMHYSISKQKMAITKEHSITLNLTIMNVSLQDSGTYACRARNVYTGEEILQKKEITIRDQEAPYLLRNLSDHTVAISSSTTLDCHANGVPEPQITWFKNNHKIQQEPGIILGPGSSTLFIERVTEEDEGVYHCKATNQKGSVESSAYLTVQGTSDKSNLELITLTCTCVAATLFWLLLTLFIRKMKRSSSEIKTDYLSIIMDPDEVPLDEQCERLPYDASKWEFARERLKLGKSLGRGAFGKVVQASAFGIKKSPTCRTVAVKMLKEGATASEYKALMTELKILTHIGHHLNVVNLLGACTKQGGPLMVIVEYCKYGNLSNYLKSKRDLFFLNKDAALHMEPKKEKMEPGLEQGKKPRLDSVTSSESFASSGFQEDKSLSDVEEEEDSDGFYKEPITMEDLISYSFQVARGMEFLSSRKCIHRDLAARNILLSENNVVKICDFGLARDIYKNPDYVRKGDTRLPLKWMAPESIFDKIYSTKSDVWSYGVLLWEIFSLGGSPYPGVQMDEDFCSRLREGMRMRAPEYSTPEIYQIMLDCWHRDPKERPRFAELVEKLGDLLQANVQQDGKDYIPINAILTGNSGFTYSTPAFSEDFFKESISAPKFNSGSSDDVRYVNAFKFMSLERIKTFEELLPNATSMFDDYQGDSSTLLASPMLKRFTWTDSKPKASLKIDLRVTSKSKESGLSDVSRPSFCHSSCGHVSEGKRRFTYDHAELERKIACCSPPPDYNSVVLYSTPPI

[4] = DRUGMATRIX: Interleukin IL-1 radioligand binding (ligand: [125I] interleukin 1beta); assay type: cell membranes, Membrane; conditions: nih3t3; Not Active = under 50% inhibition at 10 µM
[5] = target: T1, Polyunsaturated fatty acid lipoxygenase ALOX15 (Oryctolagus cuniculus, UniProt P12530); assay: biochemical; assay type: tissue-based, Reticulocytes; conditions: reticulocytes;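 note: inhibition of 15-lipoxygenase enzyme activity measured with linoleic acid as the substrate; in other assays of this panel Not Active means under 50% inhibition at 10 µM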
T1 sequence (P12530 whole entry): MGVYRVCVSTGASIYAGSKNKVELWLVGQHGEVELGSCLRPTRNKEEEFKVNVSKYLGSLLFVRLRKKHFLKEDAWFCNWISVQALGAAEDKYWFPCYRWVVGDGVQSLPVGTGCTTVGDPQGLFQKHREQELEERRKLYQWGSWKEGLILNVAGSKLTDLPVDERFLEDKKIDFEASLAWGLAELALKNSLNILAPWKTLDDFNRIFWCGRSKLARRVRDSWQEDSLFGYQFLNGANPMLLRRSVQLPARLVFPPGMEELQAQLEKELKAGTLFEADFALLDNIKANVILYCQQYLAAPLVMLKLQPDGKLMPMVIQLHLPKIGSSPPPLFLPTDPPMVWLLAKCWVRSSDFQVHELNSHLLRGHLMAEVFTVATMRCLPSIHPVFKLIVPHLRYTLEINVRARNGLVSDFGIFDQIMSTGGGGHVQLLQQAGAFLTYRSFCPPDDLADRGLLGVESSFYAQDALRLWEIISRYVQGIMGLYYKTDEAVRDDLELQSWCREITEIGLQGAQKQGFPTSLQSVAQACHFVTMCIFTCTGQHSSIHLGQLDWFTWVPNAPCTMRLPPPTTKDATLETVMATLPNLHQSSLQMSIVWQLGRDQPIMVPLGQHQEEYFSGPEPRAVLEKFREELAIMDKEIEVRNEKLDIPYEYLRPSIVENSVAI

[6] = target: T2, Nitric oxide synthase, inducible (Mus musculus, UniProt P29477); design: species or system Escherichia coli;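 note: inhibition of iNOS enzyme activity measured with L-arginine as substrate; in other assays of this panel Not Active means under 50% inhibition at 10 µM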
T2 sequence (P29477 whole entry): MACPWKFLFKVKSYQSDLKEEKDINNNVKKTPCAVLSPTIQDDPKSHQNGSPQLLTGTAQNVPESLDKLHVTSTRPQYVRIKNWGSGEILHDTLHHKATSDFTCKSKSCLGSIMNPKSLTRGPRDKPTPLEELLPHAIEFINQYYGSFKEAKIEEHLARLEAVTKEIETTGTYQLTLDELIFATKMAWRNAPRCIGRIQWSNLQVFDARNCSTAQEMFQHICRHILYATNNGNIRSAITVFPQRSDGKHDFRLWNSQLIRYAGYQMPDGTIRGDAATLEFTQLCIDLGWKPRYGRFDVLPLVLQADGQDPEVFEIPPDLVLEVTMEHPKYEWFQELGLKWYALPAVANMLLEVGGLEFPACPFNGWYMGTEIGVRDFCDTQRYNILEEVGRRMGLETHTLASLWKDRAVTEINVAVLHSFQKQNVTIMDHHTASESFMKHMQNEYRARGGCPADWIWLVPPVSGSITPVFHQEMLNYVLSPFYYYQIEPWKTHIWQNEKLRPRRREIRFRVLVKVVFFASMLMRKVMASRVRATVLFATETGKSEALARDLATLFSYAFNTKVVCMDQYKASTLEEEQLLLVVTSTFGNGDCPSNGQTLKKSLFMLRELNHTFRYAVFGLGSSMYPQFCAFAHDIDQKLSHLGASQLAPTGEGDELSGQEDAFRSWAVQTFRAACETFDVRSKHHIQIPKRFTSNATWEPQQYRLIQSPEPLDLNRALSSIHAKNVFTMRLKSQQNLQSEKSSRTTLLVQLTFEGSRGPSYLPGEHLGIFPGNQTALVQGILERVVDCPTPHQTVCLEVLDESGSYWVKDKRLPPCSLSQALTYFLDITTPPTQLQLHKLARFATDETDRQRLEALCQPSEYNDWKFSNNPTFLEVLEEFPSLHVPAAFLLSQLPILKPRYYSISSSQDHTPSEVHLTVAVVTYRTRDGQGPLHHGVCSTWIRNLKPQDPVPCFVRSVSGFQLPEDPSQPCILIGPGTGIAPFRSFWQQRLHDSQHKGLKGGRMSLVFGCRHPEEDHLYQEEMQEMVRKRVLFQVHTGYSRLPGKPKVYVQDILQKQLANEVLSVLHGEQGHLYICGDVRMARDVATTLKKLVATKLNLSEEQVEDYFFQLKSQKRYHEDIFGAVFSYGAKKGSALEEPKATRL

[7] = DRUGMATRIX: Phorbol Ester radioligand binding (ligand: [3H] PDBu); assay type: cell membranes, Mus musculus, ICR, Brain, Membrane; conditions: Not Active = under 50% inhibition at 10 µM
[8] = target: 5-hydroxytryptamine receptor 1B (Rattus norvegicus, UniProt P28564); assay type: cell membranes, Wistar, Cerebral cortex, Membrane; note: in other assays of this panel Not Active means under 50% inhibition at 10 µM
5-hydroxytryptamine receptor 1B, sequence (P28564 whole entry): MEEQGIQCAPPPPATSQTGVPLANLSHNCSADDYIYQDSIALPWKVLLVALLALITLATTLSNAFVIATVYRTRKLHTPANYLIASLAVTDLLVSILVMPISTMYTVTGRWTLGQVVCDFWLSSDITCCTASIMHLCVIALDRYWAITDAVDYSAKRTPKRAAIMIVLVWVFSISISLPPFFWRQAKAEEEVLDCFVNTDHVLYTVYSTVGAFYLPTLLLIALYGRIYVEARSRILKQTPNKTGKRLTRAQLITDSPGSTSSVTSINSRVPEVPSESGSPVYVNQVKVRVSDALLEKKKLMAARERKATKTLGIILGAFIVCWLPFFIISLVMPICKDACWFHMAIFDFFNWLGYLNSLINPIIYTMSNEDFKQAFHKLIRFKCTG

[9] = target: Cytochrome P450 2C9 (Homo sapiens, UniProt P11712); conditions: bti-tn-5b1-4; note: in other assays of this panel Not Active means under 50% inhibition at 10 µM
Cytochrome P450 2C9, sequence (P11712 whole entry): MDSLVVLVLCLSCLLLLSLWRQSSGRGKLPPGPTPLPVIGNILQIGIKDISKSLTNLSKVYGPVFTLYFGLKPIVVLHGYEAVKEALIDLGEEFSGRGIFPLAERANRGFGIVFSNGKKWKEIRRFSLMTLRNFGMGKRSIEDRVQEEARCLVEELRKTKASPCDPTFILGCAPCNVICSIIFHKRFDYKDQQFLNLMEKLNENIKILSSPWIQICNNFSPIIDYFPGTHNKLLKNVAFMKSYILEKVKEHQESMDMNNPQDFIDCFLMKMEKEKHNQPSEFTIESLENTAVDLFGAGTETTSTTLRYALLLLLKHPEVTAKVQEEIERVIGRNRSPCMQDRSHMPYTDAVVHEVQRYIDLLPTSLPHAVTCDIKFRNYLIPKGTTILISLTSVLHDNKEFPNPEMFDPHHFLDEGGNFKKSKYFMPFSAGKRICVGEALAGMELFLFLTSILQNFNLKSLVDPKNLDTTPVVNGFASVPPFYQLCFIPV

5-hydroxytryptamine receptor 4, sequence (O70528 whole entry): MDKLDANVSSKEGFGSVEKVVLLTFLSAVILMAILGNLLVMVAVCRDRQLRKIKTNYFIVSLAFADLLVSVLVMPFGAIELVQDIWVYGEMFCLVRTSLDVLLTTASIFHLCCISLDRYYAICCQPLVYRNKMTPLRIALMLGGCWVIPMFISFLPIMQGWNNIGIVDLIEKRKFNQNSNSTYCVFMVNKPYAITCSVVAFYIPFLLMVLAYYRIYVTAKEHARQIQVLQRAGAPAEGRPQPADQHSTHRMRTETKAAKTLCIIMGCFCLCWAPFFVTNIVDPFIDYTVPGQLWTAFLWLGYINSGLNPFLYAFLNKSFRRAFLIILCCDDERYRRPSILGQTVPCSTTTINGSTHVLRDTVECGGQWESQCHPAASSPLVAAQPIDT

SMILES | IC50 [1] | IC50 [2] | Ki [2] | IC50 [3] | IC50 [4] | Ki [4] | IC50 [5] | IC50 [6] | IC50 [7] | Ki [7] | IC50 [8] | IC50 [9] | Ki [9] | IC50 ([8]; read-out: IC50) | Ki ([8]; read-out: Ki)
CCOC(N)=O | Not Active | Not Active | Not Active | Not Active | Not Active | Not Active | Not Active | Not Active | Not Active | Not Active | Not Active | Not Active | Not Active | – | –
COc1ccc(CN2CCNCC2)c(OC)c1OC [TRIMETAZIDINE] | Not Active | Not Active | Not Active | Not Active | Not Active | Not Active | Not Active | Not Active | Not Active | Not Active | Not Active | – | – | – | –
CC(=O)O[C@H]1C[C@@H]2CC[C@@H]3[C@H](CC[C@@]4(C)[C@H]3C[C@H]([N+]3(C)CCCCC3)[C@@H]4OC(C)=O)[C@@]2(C)C[C@@H]1N1CCCCC1.[Br-] [VECURONIUM BROMIDE] | Not Active | Not Active | Not Active | Not Active | Not Active | Not Active | Not Active | Not Active | Not Active | Not Active | Not Active | Not Active | Not Active | – | –
C[C@@H]1C[C@H]2[C@@H]3CCC4=CC(=O)C=C[C@]4(C)C3=CC[C@]2(C)[C@H]1C(=O)CN1CCN(c2cc(N3CCCC3)nc(N3CCCC3)n2)CC1 [TIRILAZAD] | Not Active | Not Active | Not Active | Not Active | Not Active | Not Active | Not Active | Not Active | Not Active | Not Active | Not Active | Not Active | Not Active | – | –
CC(C)OC(=O)C(C)(C)Oc1ccc(C(=O)c2ccc(Cl)cc2)cc1 [FENOFIBRATE] | Not Active | – | – | Not Active | – | – | Not Active | Not Active | – | – | Not Active | Not Active | Not Active | – | –
C[C@@H](O)[C@H]1C(=O)N2C(C(=O)O)=C(S[C@@H]3CN[C@H](C(=O)N(C)C)C3)[C@H](C)[C@H]12 [MEROPENEM] | Not Active | Not Active | Not Active | Not Active | Not Active | Not Active | Not Active | Not Active | Not Active | Not Active | Not Active | Not Active | Not Active | – | –
CC[C@@H](CO)NC(=O)[C@@H]1C=C2c3cccc4c3c(cn4C)C[C@H]2N(C)C1 [METHYSERGIDE] | Not Active | – | – | Not Active | – | – | Not Active | Not Active | – | – | – | Not Active | Not Active | 177 nM | 108 nM
CCN(CC)CC#CCOC(=O)C(O)(c1ccccc1)C1CCCCC1 (stereo not given) [OXYBUTYNIN] | Not Active | – | – | Not Active | – | – | Not Active | Not Active | – | – | Not Active | Not Active | Not Active | – | –
O=c1[nH]c2ccccc2n1CCCN1CCC(n2c(=O)[nH]c3cc(Cl)ccc32)CC1 [DOMPERIDONE] | Not Active | – | – | Not Active | – | – | Not Active | Not Active | – | – | Not Active | – | – | – | –
